# Experimental data reported in patent publication US11466067B2 (priority 2019, dated 2022).
# B1: Drug Substance (DS) (protein)
# chain: MVEEALNIFDECRSPCSLTPEPGKPIQSKLSIPSDVVLDEGVLYYSMTINDEQNDIKDEDKGESIITIGEFATVRATRHYVNQDAPFGVIHLDITTENGTKTYSYNRKEGEFAINWLVPIGEDSPASIKISVDELDQQRNIIEVPKLYSIDLDNQTLEQWKTQGNVSFSVTRPEHNIAISWPSVSYKAAQKEGSRHKRWAHWHTGLALCWLVPMDAIYNYITQQNCTLGDNWFGGSYETVAGTPKVITVKQGIEQKPVEQRIHFSKGNAMSALAAHRVCGVPLETLARSRKPRDLTDDLSCAYQAQNIVSLFVATRILFSHLDSVFTLNLDEQEPEVAERLSDLRRINENNPGMVTQVLTVARQIYNDYVTHHPGLTPEQTSAGAQAGGGGSGGGGSGGGGSPGQGTQSENSCTHFPGNLPNMLRDLRDAFSRVKTFFQMKDQLDNLLLKESLLEDFKGYLGCQALSEMIQFYLEEVMPQAENQDPDIKAHVNSLGENLKTLRLRLRRCHRFLPCENKSKAVEQVKNAFNKLQEKGIYKAMSEFDIFINYIEAYMTMKIRN
# modifications: dimer
# Experiments:
# [1] = Surfactant evaluation under shear stress (visual, turbidity, SEC-HPLC); assay type: physicochemical; conditions: for SEC-HPLC forms of construct (HMW, dimer, monomer) with surfactant: 1×PBS, before/after vortexing
# Experimental: Following vortexing, the solution was visually inspected. The sample without a surfactant was slightly hazy while the samples with the surfactant were clear after vortexing. The turbidity (340-360 nm) of the solution was assessed after vortexing.
# SEC-HPLC was carried out on the IL-10 delivery construct formulations before (FIG. 93) and after (FIG. 94) vortexing (TABLE 48).
# [2] = Salt screening for dimer stability (SE-HPLC); assay type: physicochemical; conditions: buffer exchange, data not shown
# Experimental: Formulations were prepared with the delivery construct at 20 g/Lin 10 mM Sodium Phosphate at pH 7.0 with the salts and salt concentrations as indicated in Table 53. The percentage of the IL-10 delivery construct present in dimer form, monomer form, and high molecular weight aggregates (HMW Agg) was assessed by size exclusion HPLC as indicated previously.
# [3] = Single oral capsule dose in NHP: plasma caffeine by LC-MS/MS; assay type: in vivo, Macaca fascicularis
# Experimental: In order to quantitate plasma caffeine levels, an LC-MS/MS detection system was employed. A 25-μL matrix aliquot was fortified with 25 μL of 2.00 μg/mL caffeine-trimethyl-^13C3 internal standard working solution. Analytes were isolated through supported liquid extraction (SLE). A portion of the eluate was transferred and evaporated under a nitrogen stream at approximately 45° C., and the remaining residue reconstituted with 500 μL of water/acetonitrile (95:5, v/v). The final extract was analyzed via HPLC with MS/MS detection using positive ion electrospray and reverse phase chromatography. Caffeine concentration was determined using similarly run calibration controls.
# IL-10 delivery construct dosing at multiple fixed doses in non-naïve adult male Macaca fascicularis was conducted by Valley Biosystems (West Sacramento, Calif.). […] Dosing groups are described in TABLE 45.
# Blood samples were collected in K2EDTA tubes from each animal pre-dose and at 0.5, 1, 2, 3, 4, 5, 6, 7, 8, and 24 hours post-dose. Animals were returned to home cages following the 2-hour sample collection. Following physical restraint, blood samples were collected via direct venous puncture using a cephalic, femoral or saphenous vein, which were processed to plasma and stored frozen at −60° C. until shipment.
# [4] = tested on: STAT3, IL-1Ra; experiment: pSTAT3/STAT3 and systemic IL-1Ra in non-inflamed mice (ELISA MSD); assay type: in vivo
# [5] = Intraluminal injection in T-cell transfer colitis model, rhIL-10 ELISA; assay type: in vivo, BALB/c and SCID mice; conditions: 159 pmoles intraluminal
# Experimental: This study was conducted to examine the potential for the carrier protein to transport rhIL-10 from the intestinal lumen into the submucosal region in inflamed intestinal tissue. The T lymphocyte (T cell) transfer model was used as it is a well-established model of induced chronic colitis in mice and presents many of the essential immunological hallmarks observed in IBD patients. Nine BALB/c mice and twelve SCID mice, including nine with the colitis-like model of inflammation, were dosed with 20 μl of test article via intraluminal injection into the distal ileum and the proximal, middle and distal colon.
# PBS vehicle was administered to healthy BALB/c mice and both healthy and induced colitis SCID mice (n=3/group). In each group, two mice were terminated 10 minutes after intraluminal injections, and one was terminated 40 minutes after intraluminal injections. Intestinal tissue and serum were collected. Collected tissue was fixed, embedded, sectioned and H&E stained for histological assessment of inflammatory status. ELISA analysis to measure rhIL 10 was performed on lysates prepared from intestinal tissue and serum (FIGS. 106A-106D).
# [6] = tested on: STAT3 phosphorylation; experiment: pSTAT3 and hIL-10 immunofluorescence in intestine 40 min post oral gavage; assay type: in vivo, rat
# Experimental: This observation is consistent with findings in mice that intestinal epithelial cells can express IL-10 receptors at their apical surface under certain conditions associated with development and maintenance of barrier function. […] In order to quantify how test articles affected intestinal IL-10 signal transduction pathways, image analysis was performed: high-throughput image batches were collected, segmented by epithelial versus Lamina propria localization, and then by cellular features.
# [7] = tested on: STAT3; conditions: 20 min stimulation
# [8] = tested on: circulating cytokines, chemokines, growth factors; assay type: in vivo, mice; conditions: mouse, in vivo
# [9] = initial liquid formulation screen
# [10] = Dimer purity during compaction/granulation (SEC); assay type: physicochemical; conditions: slugging/granulation formulation intermediates
# Experimental: The compatibility of the IL-10 delivery construct was evaluated for the initial steps of tablet formation. Blending and compaction processes were conducted. Both roller compaction and slugging was conducted, with subsequent milling to granules in each case. In order to explore excipient functionality and compatibility, different excipients were included in the three formulations.
# Roller compaction was conducted at 2 forces, and the resulting ribbons were individually granulated. Materials were reconstituted in PBS at 0.65 mg/mL SEQ ID NO: 5 and filtered with 0.2 um filter (Advantec) before SEC analysis. Samples were also incubated at 40° C. for two weeks before reconstitution and analysis.
# The same analysis was conducted for the intermediates generated in the slugging/granulation process (TABLE 30). As well as the different compaction method, the slugging/granulation batch differed in binder and lubricant composition.
molecule,measurement,setting,value
polysorbate 20,turbidity (340-360 nm) after vortexing,[1]; 0.1% in 1×PBS,increase in absorbance was also observed
same,"SEC-HPLC forms of construct (HMW, dimer, monomer) with surfactant",[1],most amount of monomer before vortexing
"N.N.O=S(=O)(O)O [NH4SO4, ammonium sulfate]",behaviour of construct at higher salt concentrations,[2],precipitate during buffer exchange
polysorbate 80,"SEC-HPLC forms of construct (HMW, dimer, monomer) with surfactant",[1],increase in HMW aggregates and monomers
Cn1c(=O)c2c(ncn2C)n(C)c1=O [caffeine],plasma caffeine Tmax,[3]; all doses,4 hours post dose
same,time at which absorption of caffeine was observable (capsule opening),"[3]; cynomolgus monkey, in vivo",2-3 hours post dose
"rhIL-10: recombinant human IL-10 (SEQ ID NO: 2), commercial preparation used as comparator",increase in ratio of pSTAT3 to total STAT3,"[4]; construct 1 mg/kg, rhIL-10 0.9 mg/kg (equimolar), non-inflamed colon tissue",did not significantly alter
same,increase of systemic IL-1Ra,"[4]; construct 10 mg/kg, rhIL-10 3 mg/kg (equimolar)",did not significantly increase
same,rhIL-10 in serum of inflamed animals,[5],minimal amounts
same,hIL-10 and pSTAT3 in intestinal tissue,[6],pSTAT3 induction in enterocytes but not in cells within the Lamina propria
same,amplitude of pSTAT3/total STAT3,[7],2.19%
"Nc1ccc(O)c(C(=O)O)c1 [5-ASA, 5-aminosalicylic acid, reference compound]",oxazolone-induced increase in plasma GCSF/CSF3,[8],attenuated
"O=S(=O)([O-])[O-].[Na+].[Na+] [Na2SO4, sodium sulfate]",behaviour of construct at higher salt concentrations,[2],precipitate during buffer exchange
poloxamer 188,"SEC-HPLC forms of construct (HMW, dimer, monomer) with surfactant",[1],seemed to stabilize the IL-10 delivery construct
same,aggregation of target construct under shear stress,[9],reduced aggregation
B1,Purity (dimer purity),[10],81.2
